{"source": "patent US4874698A", "about": "“Process for producing tryptophan” (Kyowa Hakko Kogyo Co., Ltd., priority 1983, dated 1989)", "key": {"[1]": {"target": "T1, anthranilic acid synthetase encoded by pTrp 9-1 (Corynebacterium glutamicum, UniProt P06557)", "T1 construct": "made in house; host or cells: Corynebacterium glutamicum LA 105", "T1 sequence (P06557 whole entry)": "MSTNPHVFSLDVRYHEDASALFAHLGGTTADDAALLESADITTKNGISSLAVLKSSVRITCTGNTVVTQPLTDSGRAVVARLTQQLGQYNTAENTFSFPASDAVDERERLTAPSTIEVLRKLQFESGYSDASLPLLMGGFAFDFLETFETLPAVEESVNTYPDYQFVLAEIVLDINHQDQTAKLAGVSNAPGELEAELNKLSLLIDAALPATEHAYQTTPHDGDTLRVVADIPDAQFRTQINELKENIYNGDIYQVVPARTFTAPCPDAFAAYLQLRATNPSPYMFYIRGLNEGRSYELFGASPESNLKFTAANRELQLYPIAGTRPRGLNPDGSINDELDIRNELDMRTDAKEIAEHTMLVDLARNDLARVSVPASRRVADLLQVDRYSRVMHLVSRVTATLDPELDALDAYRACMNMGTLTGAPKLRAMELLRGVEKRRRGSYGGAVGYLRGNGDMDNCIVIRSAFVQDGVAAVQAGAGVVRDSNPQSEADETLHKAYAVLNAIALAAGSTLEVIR", "T1 sequence (P06558 whole entry, further chain)": "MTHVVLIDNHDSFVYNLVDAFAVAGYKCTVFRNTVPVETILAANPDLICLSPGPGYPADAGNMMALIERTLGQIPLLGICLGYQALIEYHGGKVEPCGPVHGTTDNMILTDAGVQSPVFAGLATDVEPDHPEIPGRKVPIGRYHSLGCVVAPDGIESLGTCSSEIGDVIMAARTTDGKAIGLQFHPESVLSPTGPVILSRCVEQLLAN", "assay": "Inhibition by tryptophan of the anthranilic acid synthetase encoded by plasmid pTrp 9-1", "assay_type": "biochemical, Corynebacterium glutamicum ATCC 13032", "procedure": "(§1) The thus obtained transformants have the plasmid harboring a gene coding for the anthranilic acid synthetase insensitie to tryptophan. The anthranilic acid synthetase encoded by one of the plasmids, pTrp 13-2 was inhibited 50% with 0.25 mM tryptophan, which was 40-fold higher than the concentration of tryptophan (0.006 mM) needed to inhibit 50% the anthranilic acid synthetase encoded by pTrp 9-1."}, "[2]": {"target": "anthranilic acid synthetase encoded by pTrp 13-2 (Corynebacterium glutamicum, UniProt P06557)", "sequence (P06557 whole entry)": "as the sequence (P06557 whole entry) above", "sequence (P06558 whole entry, further chain)": "as the sequence (P06558 whole entry, further chain) above", "assay": "Inhibition by tryptophan of the anthranilic acid synthetase encoded by plasmid pTrp 13-2", "assay_type": "biochemical", "procedure": "as §1"}}}
{"smiles": "N[C@@H](Cc1c[nH]c2ccccc12)C(=O)O", "note": "[tryptophan]", "values": [{"measurement": "IC50", "setting": "[1]", "result": 6, "unit": "µM"}, {"measurement": "fold higher 50% inhibitory tryptophan concentration, pTrp 13-2 enzyme versus pTrp 9-1 enzyme", "setting": "[2]; 0.25 mM versus 0.006 mM", "result": 40, "unit": "fold"}, {"measurement": "IC50", "setting": "[2]; read-out: concentration of tryptophan inhibiting the anthranilic acid synthetase 50%, enzyme encoded by tryptophan-analog resistant plasmid pTrp 13-2", "result": 250, "unit": "µM"}]}
